As a reminder, the IC50 is the concentration at which inhibition is half-maximal. Read a low IC50 as greater potency.

Consider 26 molecules from patent US10919911B2, “Tricyclic ASK1 inhibitors” (Terns, Inc., priority 2018, dated 2021).

ASK1 kinase, sequence (Q99683 whole entry): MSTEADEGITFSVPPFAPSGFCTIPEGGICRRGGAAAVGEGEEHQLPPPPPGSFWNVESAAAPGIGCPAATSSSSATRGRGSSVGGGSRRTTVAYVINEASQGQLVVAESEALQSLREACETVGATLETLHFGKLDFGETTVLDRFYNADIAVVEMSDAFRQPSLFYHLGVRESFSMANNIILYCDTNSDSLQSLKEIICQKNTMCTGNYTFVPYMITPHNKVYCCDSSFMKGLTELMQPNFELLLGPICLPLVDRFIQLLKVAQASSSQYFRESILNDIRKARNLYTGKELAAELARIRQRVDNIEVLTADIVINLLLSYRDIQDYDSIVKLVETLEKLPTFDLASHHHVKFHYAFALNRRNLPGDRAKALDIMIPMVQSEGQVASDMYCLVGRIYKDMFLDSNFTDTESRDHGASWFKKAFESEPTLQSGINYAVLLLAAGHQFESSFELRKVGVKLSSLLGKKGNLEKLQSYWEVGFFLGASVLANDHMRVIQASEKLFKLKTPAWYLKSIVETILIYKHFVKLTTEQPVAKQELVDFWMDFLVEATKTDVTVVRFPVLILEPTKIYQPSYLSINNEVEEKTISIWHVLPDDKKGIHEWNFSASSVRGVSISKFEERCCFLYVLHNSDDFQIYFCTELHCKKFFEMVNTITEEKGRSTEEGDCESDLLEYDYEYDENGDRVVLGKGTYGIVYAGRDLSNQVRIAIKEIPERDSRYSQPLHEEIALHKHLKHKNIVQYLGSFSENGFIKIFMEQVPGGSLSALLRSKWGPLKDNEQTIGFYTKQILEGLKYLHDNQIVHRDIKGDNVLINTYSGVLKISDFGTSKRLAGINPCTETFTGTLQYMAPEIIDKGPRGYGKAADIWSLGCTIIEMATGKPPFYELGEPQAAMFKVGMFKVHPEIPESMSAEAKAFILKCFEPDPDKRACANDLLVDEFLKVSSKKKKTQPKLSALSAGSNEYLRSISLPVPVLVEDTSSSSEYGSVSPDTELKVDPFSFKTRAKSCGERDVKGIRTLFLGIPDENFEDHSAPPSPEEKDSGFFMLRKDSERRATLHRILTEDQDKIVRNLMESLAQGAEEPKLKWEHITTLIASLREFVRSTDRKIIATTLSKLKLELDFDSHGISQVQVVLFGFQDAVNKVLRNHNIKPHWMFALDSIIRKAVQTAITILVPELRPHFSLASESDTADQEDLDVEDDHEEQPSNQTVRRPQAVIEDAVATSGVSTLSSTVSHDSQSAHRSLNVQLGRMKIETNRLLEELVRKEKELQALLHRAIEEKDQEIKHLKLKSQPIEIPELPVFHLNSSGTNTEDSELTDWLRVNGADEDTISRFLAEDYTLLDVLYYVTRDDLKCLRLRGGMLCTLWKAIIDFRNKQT

The experiment concerns the target ASK1 kinase (Homo sapiens (Human), UniProt Q99683). Description: RBC Kinase Assay (33P-ATP radiometric, myelin basic protein substrate). The format is biochemical. Conditions: 20 ng ASK1 kinase, MBP substrate, 120 min at room temperature, 1% DMSO. The method, then: Example B1. RBC Kinase Assay Protocol
Base Reaction buffer: 20 mM Hepes (pH 7.5), 10 mM MgCl2, 1 mM EGTA, 0.02% Brij35, 0.02 mg/ml BSA, 0.1 mM Na3VO4, 2 mM DTT, and 1% DMSO were used for the assay.
Myelin base protein (MPB) was prepared in freshly prepared Base Reaction Buffer. 20 ng of ASK1 kinase was delivered into the substrate solution and gently mixed. Compounds in DMSO were delivered into the kinase reaction mixture (final DMSO concentration 1%). Commercially available 33P-ATP was delivered into the reaction mixture to initiate the reaction. The kinase reaction was incubated for 120 min. at room temperature. Reactions were spotted onto P81 ion exchange paper (Whatman #3698-915). Filters were washed extensively in 0.75% Phosphoric acid. Radioactivity on filters was read, and IC50 values were determined.
The molecule `Cc1cc(F)c(C(=O)Nc2cccc3c2OC2(CCC2)Cn2nnnc2-3)cc1-n1cnc(C2CC2)c1` [Example 72, 5-(4-cyclopropyl-1H-imidazol-1-yl)-2-fluoro-4-methyl-N-(5H-spiro[benzo[f]tetrazolo[1,5-d][1,4]oxazepine-6,1′-cyclobutan]-8-yl)benzamide] gave a half-inhibitory concentration (IC50) of 11.6 nM.
Consider `Cc1cc(F)c(C(=O)Nc2cccc3c2OC[C@@H](C2CC2)n2cnnc2-3)cc1-n1cnc(C2CC2)c1` [Example 8, (R)-5-(4-cyclopropyl-1H-imidazol-1-yl)-N-(5-cyclopropyl-5,6-dihydrobenzo[f][1,2,4]triazolo[4,3-d][1,4]oxazepin-8-yl)-2-fluoro-4-methylbenzamide], for which half-maximal inhibition (IC50) required 11.7 nM.
For the molecule `Cc1cc(F)c(C(=O)Nc2cccc3c2OCC(C)(C)n2nnnc2-3)cc1-n1cnc(C2CC2)c1` [Example 13, 5-(4-cyclopropyl-1H-imidazol-1-yl)-N-(5,5-dimethyl-5,6-dihydrobenzo[f]tetrazolo[1,5-d][1,4]oxazepin-8-yl)-2-fluoro-4-methylbenzamide], half-maximal inhibition (IC50) required 5.2 nM.
For `O=C(Nc1cccc2c1OC[C@H](CF)n1cnnc1-2)c1cc(-n2cnc(C3CC3)c2)ccn1` [Example 33, (R)-4-(4-cyclopropyl-1H-imidazol-1-yl)-N-(5-(fluoromethyl)-5,6-dihydrobenzo[f][1,2,4]triazolo[4,3-d][1,4]oxazepin-8-yl)picolinamide] the value was 4.1 nM; for `Cc1cc(F)c(C(=O)Nc2cccc3c2OC[C@H](CF)n2nnnc2-3)cc1-n1cnc(C2CC2)c1` [Example 26, (R)-5-(4-cyclopropyl-1H-imidazol-1-yl)-2-fluoro-N-(5-(fluoromethyl)-5,6-dihydrobenzo[f]tetrazolo[1,5-d][1,4]oxazepin-8-yl)-4-methylbenzamide], 8 nM; for `Cc1cc(F)c(C(=O)Nc2cccc3c2OC[C@H](C)n2nnnc2-3)cc1-n1cnc(C2CC2)c1` [Example 3, (S)-5-(4-cyclopropyl-1H-imidazol-1-yl)-2-fluoro-4-methyl-N-(5-methyl-5,6-dihydrobenzo[f]tetrazolo[1,5-d][1,4]oxazepin-8-yl)benzamide], 5.7 nM.
`C[C@@H]1COc2c(NC(=O)c3cc(-n4cnc(C5CC5)c4)c(N4CC[C@@H](O)C4)cn3)cccc2-c2nnnn21` [Example 77, 4-(4-cyclopropyl-1H-imidazol-1-yl)-5-((R)-3-hydroxypyrrolidin-1-yl)-N—((R)-5-methyl-5,6-dihydrobenzo[f]tetrazolo[1,5-d][1,4]oxazepin-8-yl)picolinamide] came in with an IC50 of 4.7 nM.
`O=C(Nc1cccc2c1OC[C@H](CO)n1nnnc1-2)c1cc(-n2cnc(C3CC3)c2)ccn1` [Example 24, (S)-4-(4-cyclopropyl-1H-imidazol-1-yl)-N-(5-(hydroxymethyl)-5,6-dihydrobenzo[f]tetrazolo[1,5-d][1,4]oxazepin-8-yl)picolinamide]: the IC50 came to 6.2 nM.
For `Cc1cc(F)c(C(=O)Nc2cccc3c2OC2(CC2)Cn2cnnc2-3)cc1-n1cnc(C2CC2)c1` [Example 45, 5-(4-cyclopropyl-1H-imidazol-1-yl)-2-fluoro-4-methyl-N-(5H-spiro[benzo[f][1,2,4]triazolo[4,3-d][1,4]oxazepine-6,1′-cyclopropan]-8-yl)benzamide] the value was 5.3 nM; for `C[C@H]1COc2c(NC(=O)c3cc(-n4cnc(C5CC5)c4)ccn3)cccc2-c2nnnn21` [Example 6, (S)-4-(4-cyclopropyl-1H-imidazol-1-yl)-N-(5-methyl-5,6-dihydrobenzo[f]tetrazolo[1,5-d][1,4]oxazepin-8-yl)picolinamide], 7.7 nM; for `Cc1cc(F)c(C(=O)Nc2cccc3c2OCC2(CC2)n2cnnc2-3)cc1-n1cnc(C2CC2)c1` [Example 10, 5-(4-cyclopropyl-1H-imidazol-1-yl)-2-fluoro-4-methyl-N-(6H-spiro[benzo[f][1,2,4]triazolo[4,3-d][1,4]oxazepine-5,1′-cyclopropan]-8-yl)benzamide], 0.5 nM.
For `C[C@@H]1Cn2cnnc2-c2cccc(NC(=O)c3cc(-n4cnc(C5CC5)c4)ccn3)c2O1` [Example 52, (R)-4-(4-cyclopropyl-1H-imidazol-1-yl)-N-(6-methyl-5,6-dihydrobenzo[f][1,2,4]triazolo[4,3-d][1,4]oxazepin-8-yl)picolinamide] the value was 5.9 nM; for `C[C@H]1COc2c(NC(=O)c3cc(-n4cnc(C5CC5)c4)ccn3)cccc2-c2nncn21` [Example 80, (S)-4-(4-cyclopropyl-1H-imidazol-1-yl)-N-(5-methyl-5,6-dihydrobenzo[f][1,2,4]triazolo[4,3-d][1,4]oxazepin-8-yl)picolinamide], 5.7 nM.
For `CC1(O)CCN(c2cnc(C(=O)Nc3cccc4c3OCCn3nnnc3-4)cc2-n2cnc(C3CC3)c2)C1` (centres unmarked) [Example 63, 4-(4-cyclopropyl-1H-imidazol-1-yl)-N-(5,6-dihydrobenzo[f]tetrazolo[1,5-d][1,4]oxazepin-8-yl)-5-(3-hydroxy-3-methylpyrrolidin-1-yl)picolinamide] the value was 2.7 nM; for `O=C(Nc1cccc2c1OC[C@H](CF)n1nnnc1-2)c1cc(-n2cnc(C3CC3)c2)ccn1` [Example 27, (R)-4-(4-cyclopropyl-1H-imidazol-1-yl)-N-(5-(fluoromethyl)-5,6-dihydrobenzo[f]tetrazolo[1,5-d][1,4]oxazepin-8-yl)picolinamide], 6.8 nM; for `Cc1cc(F)c(C(=O)Nc2cccc3c2OC[C@H](CO)n2nnnc2-3)cc1-n1cnc(C2CC2)c1` [Example 23, (S)-5-(4-cyclopropyl-1H-imidazol-1-yl)-2-fluoro-N-(5-(hydroxymethyl)-5,6-dihydrobenzo[f]tetrazolo[1,5-d][1,4]oxazepin-8-yl)-4-methylbenzamide], 0.9 nM.
With `Cc1cc(F)c(C(=O)Nc2cccc3c2OC[C@@H]([C@H](C)O)n2nnnc2-3)cc1-n1cnc(C2CC2)c1` [Example 48, 5-(4-cyclopropyl-1H-imidazol-1-yl)-2-fluoro-N—((S)-5-((S)-1-hydroxyethyl)-5,6-dihydrobenzo[f]tetrazolo[1,5-d][1,4]oxazepin-8-yl)-4-methylbenzamide], the IC50 is 5.1 nM.
Turning to `C[C@@H]1CN(c2cnc(C(=O)Nc3cccc4c3OC[C@H](C)n3nnnc3-4)cc2-n2cnc(C3CC3)c2)CCO1` [Example 76, 4-(4-cyclopropyl-1H-imidazol-1-yl)-N—((S)-5-methyl-5,6-dihydrobenzo[f]tetrazolo[1,5-d][1,4]oxazepin-8-yl)-5-((R)-2-methylmorpholino)picolinamide], the IC50 was 3.2 nM.
For `CC1(C)COc2c(NC(=O)c3cc(-n4cnc(C5CC5)c4)c(N4CCOCC4)cn3)cccc2-c2nnnn21` [Example 37, 4-(4-cyclopropyl-1H-imidazol-1-yl)-N-(5,5-dimethyl-5,6-dihydrobenzo[f]tetrazolo[1,5-d][1,4]oxazepin-8-yl)-5-morpholinopicolinamide] the value was 0.5 nM.
For `Cc1cc(F)c(C(=O)Nc2cccc3c2OC[C@H](C)n2cncc2-3)cc1-n1cnc(C2CC2)c1` [Example 46, (S)-5-(4-cyclopropyl-1H-imidazol-1-yl)-2-fluoro-4-methyl-N-(5-methyl-5,6-dihydrobenzo[f]imidazo[1,5-d][1,4]oxazepin-8-yl)benzamide] the value was 15.1 nM.
For `Cc1cc(F)c(C(=O)Nc2cccc3c2OC[C@@H](C2CC2)n2nnnc2-3)cc1-n1cnc(C2CC2)c1` [Example 12, (R)-5-(4-cyclopropyl-1H-imidazol-1-yl)-N-(5-cyclopropyl-5,6-dihydrobenzo[f]tetrazolo[1,5-d][1,4]oxazepin-8-yl)-2-fluoro-4-methylbenzamide] the value was 4.7 nM; for `Cc1cc(F)c(C(=O)Nc2cccc3c2OC[C@@H](C)n2cncc2-3)cc1-n1cnc(C2CC2)c1` [Example 47, (R)-5-(4-cyclopropyl-1H-imidazol-1-yl)-2-fluoro-4-methyl-N-(5-methyl-5,6-dihydrobenzo[f]imidazo[1,5-d][1,4]oxazepin-8-yl)benzamide], 6.8 nM.
`C[C@@H]1COc2c(NC(=O)c3cc(-n4cnc(C5CC5)c4)c(N4CCOCC4)cn3)cccc2-c2nncn21` [Example 39, (R)-4-(4-cyclopropyl-1H-imidazol-1-yl)-N-(5-methyl-5,6-dihydrobenzo[f][1,2,4]triazolo[4,3-d][1,4]oxazepin-8-yl)-5-morpholinopicolinamide] came in with an IC50 of 5.5 nM.
For `O=C(Nc1cccc2c1OCCn1nnnc1-2)c1cc(-n2cnc(C3CC3)c2)c(N2CC[C@H](O)C2)cn1` [Example 61, (S)-4-(4-cyclopropyl-1H-imidazol-1-yl)-N-(5,6-dihydrobenzo[f]tetrazolo[1,5-d][1,4]oxazepin-8-yl)-5-(3-hydroxypyrrolidin-1-yl)picolinamide] the value was 3.5 nM; for `Cc1cc(F)c(C(=O)Nc2cccc3c2OCCn2cnc(C)c2-3)cc1-n1cnc(C2CC2)c1` [Example 51, 5-(4-cyclopropyl-1H-imidazol-1-yl)-2-fluoro-4-methyl-N-(1-methyl-5,6-dihydrobenzo[f]imidazo[1,5-d][1,4]oxazepin-8-yl)benzamide], 307 nM.
For `O=C(Nc1cccc2c1OCCn1nnnc1-2)c1cc(-n2cnc(C3CC3)c2)c(N2C[C@H]3C[C@@H]2CO3)cn1` [Example 62, 5-((1R,4R)-2-oxa-5-azabicyclo[2.2.1]heptan-5-yl)-4-(4-cyclopropyl-1H-imidazol-1-yl)-N-(5,6-dihydrobenzo[f]tetrazolo[1,5-d][1,4]oxazepin-8-yl)picolinamide] the value was 5.1 nM.
